Measurements as given in patent US20240041773A1, “POWDER MIXING DEVICE, AND USES THEREOF” (University of Connecticut, priority 2022, published 2024).

How the values were obtained:
[1] = Powder adhesion to blender wall (initial powder weight minus powder recovered); assay type: physicochemical
Experimental: Reference will now be to FIGS. 17A, 17B and 18. To investigate the impact of using the surface of the blender on powder adhesion to the blender material, the total powder adhesion was calculated by subtracting the amount of powder recovered and initial powder weight. […] This may be the result of significant adhesive forces between the blender wall and ibuprofen particles. The blender wall has an opposite charge as compared to ibuprofen particles therefore powder particles becomes attracted to the blender wall and deposit there due to image forces. Additionally, bipolar charging may occur due to this high level of powder adhesion which could further decrease the number of particle-blender wall collisions, further changing the powder charging dynamics.

[2] = Tribocharging of ibuprofen powder in V blenders, specific charge measured by Faraday cup; assay type: physicochemical
Experimental: Ibuprofen was chosen as the model blending powder 140 due to its ability to charge excessively and was evaluated in all the V blenders 110. The V blender materials were procured from McMaster-Carr (https://www.mcmaster.com/) and was fabricated at the University of Connecticut (https://uconn.edu/). Ibuprofen powder 140 was spread into thin layers onto aluminum foil and equilibrated overnight at 16% RH along with the V blender 110 before the blending experiments. Before starting the experiment, initial charge was measured using Faraday cup 200. The blender 110 was charged with the powder 140 and blended in all the blenders for different time intervals. After completion of the tribocharging experiment powder was collected in the Faraday cup 200 connected to a nano-coulombmeter to measure the charge, which was reported as charge to mass ratio, also known as specific charge (nC/g) (FIG. 9). All experiments were done in triplicate at room temperature and at 16% RH. Similar experiments were also performed using ibuprofen—excipient blends to understand equipment capability to mitigate electrostatic charging in other powders. For this study, Ibuprofen—Sugar sphere (500/600 μm) blends were evaluated using stainless steel (SS), stainless steel-PVC (SS-PVC), and PVC blenders. Sugar spheres is widely used excipient for sustained-release pellet formulations used in oral dosage forms therefore, selected for this study.
With reference to FIGS. 10-16, to study triboelectrification, a measured quantity 50 g of ibuprofen was loaded into the V blender 110 which were rotated at 13 rpm for different time intervals. The experiments were performed for different time intervals such as 2, 10, 20, 30, and 40 mins (respectively graphed as bars A-E in FIGS. 10-14) at 13 rpm and 16% relative humidity. […] Final charge with Al-PVC blender 110 of FIG. 6 as shown with the different graphed bars 12A-12E of the bar graph of FIG. 12 was negative in polarity, e.g., due to more interaction of ibuprofen with Aluminum. It can be observed after comparing specific charge from three blenders 110, the Al-PVC blender 110 of FIG. 6 can reduce charge (FIGS. 10-12).
Additionally, the graphs of these FIGS. are showing the charge in nC/g which might appear small but industrial manufacturing involves large scale handling of powders which leads to huge electrostatic charging.

powder adhesion to the blender walls ([1]; dual-material blenders (Al-PVC, SS-PVC)): decrease in the powder adhesion | powder adhesion to the blender walls ([1]; metal or insulator (single-material) blenders): significant adhesion | charge accumulated compared with the PVC and Al blenders ([2]; Al-PVC blender, 13 rpm, 16% RH): significantly less | polarity of final charge ([2]; Al-PVC blender, 50 g, 13 rpm, 16% RH): negative | polarity of charge acquired ([2]; Aluminum blender, 50 g, 13 rpm, 2-40 mins, 16% RH): negatively | polarity of charge acquired ([2]; PVC blender, 50 g, 13 rpm, 2-40 mins, 16% RH): positively | polarity of charge acquired ([2]; PVC blender, 50 g, 13 rpm, 2-40 mins, 16% RH, listed as ibuprofen): positive charge | time of charge saturation ([2]; blending at 13 rpm, 16% RH): 30 min | polarity of charge acquired ([2]; stainless steel and PVC blender (SS-PVC)): negative charge | polarity of charge acquired ([2]; stainless steel blender (cGMP material)): negative charge
Compound: CC(C)Cc1ccc(C(C)C(=O)O)cc1 (stereo not shown) [Ibuprofen]
